Results taken from patent publication US8632792B2, “Cooling sensation agent composition and sensory stimulation agent composition” (Takasago International Corporation, priority 2008, dated 2014).

tested on: internal bronchia; assay: Cooling towel (washing processed), organoleptic ranking of cooling action; format: in vivo; settings: Group B; 6 hr; 1% in base washing detergent; low sum = strong
Text: (§1) Each of di-1-menthyl carbonate, di-1-isopulegol carbonate, 1-menthyl-1-menthoxy ethyl carbonate, 1-menthyl-1-isopulegol carbonate, 1-menthoxypropanediol benzaldehyde acetal, 1-menthoxypropanediol methylheptenone ketal, 1-menthoxypropanediol-1-citronellal acetal, menthyl palmitate, menthyl stearate, menthyl isostearate, 1-menthoxypropanediol, and an equivalent-weight mixture of 1-menthyl-menthoxy ethyl carbonate, menthoxypropanediol citronellal acetal and menthyl isostearate was compounded with a base washing detergent solution at a concentration of 1%.
(§2) A pure cotton hand towel (white plain towel made in Japan, 20 cm×20 cm, degrease-finished) was hand-washed for 3 minutes at a particular concentration (water: 10 L, detergent: 3 g, water temperature: 17° C.), then washed with the same amount of water for 2 minutes, squeezed lightly, and air-dried indoor for 6 hours. The hand towels prepared, the hand towels after 24 hours and the hand towels after 48 hours were brought into contact with the internal bronchia and the cooling action thereof was determined organoleptically. The determination was conducted as same as Example 1, that is, […] professional examiners are divided into three groups; different 5 kinds of samples were ranked from the strongest to weakest in action respectively by the examiners in three groups; and the result was shown by the sum of the ranking numbers.

SMILES	sum of the ranking numbers (cooling effect on treated hand towel after washing)
CC(C)[C@@H]1CC[C@@H](C)C[C@H]1OCC1COC(c2ccccc2)O1 (some centres unmarked) [1-menthoxypropanediol benzaldehyde acetal]	11
CC(C)=CCCC1(C)OCC(CO[C@@H]2C[C@H](C)CC[C@H]2C(C)C)O1 (some centres unmarked) [1-menthoxypropanediol methylheptenone ketal]	10
CC(C)=CCC[C@H](C)CC1OCC(CO[C@@H]2C[C@H](C)CC[C@H]2C(C)C)O1 (some centres unmarked) [1-menthoxypropanediol-1-citronellal acetal]	13

same assay, conditions: Group B; 24 hr (third time point); 1% in base washing detergent; low sum = strong

SMILES	sum of the ranking numbers (cooling effect on treated hand towel after washing)
CC(C)[C@@H]1CC[C@@H](C)C[C@H]1OCC1COC(c2ccccc2)O1 (some centres unmarked) [1-menthoxypropanediol benzaldehyde acetal]	11
CC(C)=CCCC1(C)OCC(CO[C@@H]2C[C@H](C)CC[C@H]2C(C)C)O1 (some centres unmarked) [1-menthoxypropanediol methylheptenone ketal]	10
CC(C)=CCC[C@H](C)CC1OCC(CO[C@@H]2C[C@H](C)CC[C@H]2C(C)C)O1 (some centres unmarked) [1-menthoxypropanediol-1-citronellal acetal]	13

same assay, conditions: Group B; 24 hr; 1% in base washing detergent; low sum = strong

SMILES	sum of the ranking numbers (cooling effect on treated hand towel after washing)
CC(C)[C@@H]1CC[C@@H](C)C[C@H]1OCC1COC(c2ccccc2)O1 (some centres unmarked) [1-menthoxypropanediol benzaldehyde acetal]	11
CC(C)=CCCC1(C)OCC(CO[C@@H]2C[C@H](C)CC[C@H]2C(C)C)O1 (some centres unmarked) [1-menthoxypropanediol methylheptenone ketal]	11
CC(C)=CCC[C@H](C)CC1OCC(CO[C@@H]2C[C@H](C)CC[C@H]2C(C)C)O1 (some centres unmarked) [1-menthoxypropanediol-1-citronellal acetal]	13

same assay, conditions: Group C; 6 hr; 1% in base washing detergent; low sum = strong

SMILES	sum of the ranking numbers (cooling effect on treated hand towel after washing)
CCCCCCCCCCCCCCCC(=O)OC1CC(C)CCC1C(C)C (centres unmarked) [Menthyl palmitate, menthyl palmitate]	18
CCCCCCCCCCCCCCCCCC(=O)OC1CC(C)CCC1C(C)C (centres unmarked) [Menthyl stearate, menthyl stearate]	21

same assay, conditions: Group C; 24 hr; 1% in base washing detergent; low sum = strong

SMILES	sum of the ranking numbers (cooling effect on treated hand towel after washing)
CCCCCCCCCCCCCCCC(=O)OC1CC(C)CCC1C(C)C (centres unmarked) [Menthyl palmitate, menthyl palmitate]	16
CCCCCCCCCCCCCCCCCC(=O)OC1CC(C)CCC1C(C)C (centres unmarked) [Menthyl stearate, menthyl stearate]	18

same assay, conditions: Group C; 48 hr; 1% in base washing detergent; low sum = strong

SMILES	sum of the ranking numbers (cooling effect on treated hand towel after washing)
CCCCCCCCCCCCCCCC(=O)OC1CC(C)CCC1C(C)C (centres unmarked) [Menthyl palmitate, menthyl palmitate]	17
CCCCCCCCCCCCCCCCCC(=O)OC1CC(C)CCC1C(C)C (centres unmarked) [Menthyl stearate, menthyl stearate]	17

tested on: not listed separately; assay: as above; format: in vivo; settings: after washing treatment and air drying for 6 hours
Text: as §1, §2

SMILES	cooling action (in words)
CC1CCC(C(C)C)C(OCC(O)CO)C1 (centres unmarked) [1-menthoxypropanediol, reference compound]	did not have cooling action

tested on: professional examiners; assay: Cooling treated towel (direct spraying), organoleptic ranking of cooling action; format: in vivo; settings: Group B; air-dried 10 min; 1% ethanol solution; low sum = strong
Text: 1% ethanol solution of each of di-1-menthyl carbonate, di-1-isopulegol carbonate, 1-menthyl-1-menthoxy ethyl carbonate, 1-menthyl-1-isopulegol carbonate, 1-menthoxypropanediol methylheptenone ketal, 1-menthoxypropanediol benzaldehyde acetal, 1-menthoxypropanediol-l-citronellal acetal, menthyl palmitate, menthyl stearate, menthyl isostearate, 1-menthol, and an equivalent-weight mixture of 1-menthyl-menthoxy ethyl carbonate, menthoxypropanediol citronellal acetal and menthyl isostearate was prepared. The solution was sprayed on a pure cotton hand towel (white plain towel made in Japan, 20 cm×20 cm, degrease-finished) in an amount of 1 g. After the towel was air-dried for 10 minutes, 3 hours, or 24 hours, the cooling action of each towel was determined organoleptically. Fifteen professional examiners with 5 years or more of experience are divided into three groups; different 5 kinds of samples were ranked from the strongest to weakest in action respectively by the examiners in three groups; and the result was shown by the sum of the ranking numbers.

SMILES	sum of the ranking numbers (cooling effect on treated hand towel at direct spraying)
CC(C)[C@@H]1CC[C@@H](C)C[C@H]1OCC1COC(c2ccccc2)O1 (some centres unmarked) [1-menthoxypropanediol benzaldehyde acetal]	15
CC(C)=CCCC1(C)OCC(CO[C@@H]2C[C@H](C)CC[C@H]2C(C)C)O1 (some centres unmarked) [1-menthoxypropanediol methylheptenone ketal]	13
CC(C)=CCC[C@H](C)CC1OCC(CO[C@@H]2C[C@H](C)CC[C@H]2C(C)C)O1 (some centres unmarked) [1-menthoxypropanediol-1-citronellal acetal]	18

same assay, conditions: Group B; air-dried 3 hr; 1% ethanol solution; low sum = strong

SMILES	sum of the ranking numbers (cooling effect on treated hand towel at direct spraying)
CC(C)[C@@H]1CC[C@@H](C)C[C@H]1OCC1COC(c2ccccc2)O1 (some centres unmarked) [1-menthoxypropanediol benzaldehyde acetal]	9
CC(C)=CCCC1(C)OCC(CO[C@@H]2C[C@H](C)CC[C@H]2C(C)C)O1 (some centres unmarked) [1-menthoxypropanediol methylheptenone ketal]	6
CC(C)=CCC[C@H](C)CC1OCC(CO[C@@H]2C[C@H](C)CC[C@H]2C(C)C)O1 (some centres unmarked) [1-menthoxypropanediol-1-citronellal acetal]	16

same assay, conditions: Group B; air-dried 24 hr; 1% ethanol solution; low sum = strong

SMILES	sum of the ranking numbers (cooling effect on treated hand towel at direct spraying)
CC(C)[C@@H]1CC[C@@H](C)C[C@H]1OCC1COC(c2ccccc2)O1 (some centres unmarked) [1-menthoxypropanediol benzaldehyde acetal]	9
CC(C)=CCCC1(C)OCC(CO[C@@H]2C[C@H](C)CC[C@H]2C(C)C)O1 (some centres unmarked) [1-menthoxypropanediol methylheptenone ketal]	6
CC(C)=CCC[C@H](C)CC1OCC(CO[C@@H]2C[C@H](C)CC[C@H]2C(C)C)O1 (some centres unmarked) [1-menthoxypropanediol-1-citronellal acetal]	16

same assay, conditions: Group C; air-dried 10 min; 1% ethanol solution; low sum = strong

SMILES	sum of the ranking numbers (cooling effect on treated hand towel at direct spraying)
CCCCCCCCCCCCCCCC(=O)OC1CC(C)CCC1C(C)C (centres unmarked) [Menthyl palmitate, menthyl palmitate]	15
CCCCCCCCCCCCCCCCCC(=O)OC1CC(C)CCC1C(C)C (centres unmarked) [Menthyl stearate, menthyl stearate]	21

same assay, conditions: Group C; air-dried 3 hr; 1% ethanol solution; low sum = strong

SMILES	sum of the ranking numbers (cooling effect on treated hand towel at direct spraying)
CCCCCCCCCCCCCCCC(=O)OC1CC(C)CCC1C(C)C (centres unmarked) [Menthyl palmitate, menthyl palmitate]	17
CCCCCCCCCCCCCCCCCC(=O)OC1CC(C)CCC1C(C)C (centres unmarked) [Menthyl stearate, menthyl stearate]	15

same assay, conditions: Group C; air-dried 24 hr; 1% ethanol solution; low sum = strong

SMILES	sum of the ranking numbers (cooling effect on treated hand towel at direct spraying)
CCCCCCCCCCCCCCCC(=O)OC1CC(C)CCC1C(C)C (centres unmarked) [Menthyl palmitate, menthyl palmitate]	17
CCCCCCCCCCCCCCCCCC(=O)OC1CC(C)CCC1C(C)C (centres unmarked) [Menthyl stearate, menthyl stearate]	17

same assay, conditions: direct spraying; comparison over 10 min to 24 hr, within the compound class

SMILES	cooling action (in words), strength and consistency
CC(C)=CCCC1(C)OCC(CO[C@@H]2C[C@H](C)CC[C@H]2C(C)C)O1 (some centres unmarked) [1-menthoxypropanediol methylheptenone ketal]	strongest in action
